Peptide text beside a SMILES is read from it.
Tests used:
Format in all cases: biochemical
HDAC2 [1] = biological target: T1, HDAC2 (Homo sapiens, UniProt Q92769); assay: HDAC2 inhibition, full IC50 measurement (Reaction Biology; fluorogenic p53 peptide RHKK(Ac)AMC); conditions: t1
T1 construct: purchased Reaction Biology Corporation (assay run by the CRO)
Experimental: (§1) The assay was performed using 50 μM fluorogenic peptide from p53 residues 379-382 [RHKK(Ac)AMC] in a base reaction buffer of 50 mM Tris-HCl at pH 8.0, 137 mM NaCl, 2.7 mM KCl, 1 mM MgCl2, and freshly added 1 mg/ml BSA and 1% DMSO. Peptides were first dissolved in DMSO and then added to the reaction mixture with the enzyme using acoustic technique, enough to reach the desired concentration for that assay point. Peptide concentrations were calculated based on mass of lyophilized peptide and its molecular weight. The substrate was then added and incubated for 1 hour at 30 °C in a sealed container. After the incubation, developer was added to stop the reaction and develop color. Kinetic measurements were then performed for 20 min with Envision with 5 min intervals (Ex/Em = 360/460 nm). The endpoint after plateau was taken for IC50 measurement.
(§2) In cases where duplicate measures are used, average data is reported in the main text or Supplementary Tables.

HDAC6 = biological target: T2, HDAC6 (Homo sapiens, UniProt Q9UBN7); assay: HDAC6 inhibition, full IC50 measurement (Reaction Biology; fluorogenic p53 peptide RHKK(Ac)AMC); conditions: t1
T2 construct: purchased Reaction Biology Corporation (assay run by the CRO)
T2 sequence (Q9UBN7 1-1215): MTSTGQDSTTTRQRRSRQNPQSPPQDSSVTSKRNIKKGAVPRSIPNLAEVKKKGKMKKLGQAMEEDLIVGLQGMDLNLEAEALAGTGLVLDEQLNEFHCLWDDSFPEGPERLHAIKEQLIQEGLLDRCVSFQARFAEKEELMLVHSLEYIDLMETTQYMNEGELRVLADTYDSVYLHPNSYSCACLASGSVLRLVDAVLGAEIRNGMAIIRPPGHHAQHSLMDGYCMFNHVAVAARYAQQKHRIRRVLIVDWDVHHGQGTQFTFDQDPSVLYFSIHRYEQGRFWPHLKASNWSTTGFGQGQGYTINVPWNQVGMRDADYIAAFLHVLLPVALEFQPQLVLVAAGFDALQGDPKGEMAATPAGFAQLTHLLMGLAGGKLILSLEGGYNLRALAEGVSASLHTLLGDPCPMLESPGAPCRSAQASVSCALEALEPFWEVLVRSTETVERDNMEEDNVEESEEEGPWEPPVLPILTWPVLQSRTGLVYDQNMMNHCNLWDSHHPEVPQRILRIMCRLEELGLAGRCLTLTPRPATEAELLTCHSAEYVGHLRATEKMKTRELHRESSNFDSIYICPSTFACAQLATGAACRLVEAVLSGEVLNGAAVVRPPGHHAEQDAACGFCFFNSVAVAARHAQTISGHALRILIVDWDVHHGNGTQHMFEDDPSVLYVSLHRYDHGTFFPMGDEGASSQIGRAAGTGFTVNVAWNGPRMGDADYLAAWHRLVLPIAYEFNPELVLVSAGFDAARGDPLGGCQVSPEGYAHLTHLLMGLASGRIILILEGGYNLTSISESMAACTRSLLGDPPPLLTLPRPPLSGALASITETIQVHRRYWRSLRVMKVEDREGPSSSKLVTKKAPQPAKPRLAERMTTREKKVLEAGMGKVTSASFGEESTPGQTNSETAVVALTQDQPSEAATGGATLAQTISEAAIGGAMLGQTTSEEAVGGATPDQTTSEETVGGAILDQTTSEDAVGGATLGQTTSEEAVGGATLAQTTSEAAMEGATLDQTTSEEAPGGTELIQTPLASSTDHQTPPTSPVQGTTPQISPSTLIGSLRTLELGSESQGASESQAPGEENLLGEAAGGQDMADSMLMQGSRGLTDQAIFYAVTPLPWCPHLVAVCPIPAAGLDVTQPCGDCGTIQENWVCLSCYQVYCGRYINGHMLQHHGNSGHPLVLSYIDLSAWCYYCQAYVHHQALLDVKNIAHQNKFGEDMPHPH
Experimental: as §1, §2

HDAC1 = biological target: T3, HDAC1 (Homo sapiens, UniProt Q13547); assay: HDAC1 inhibition, full IC50 measurement (Reaction Biology; fluorogenic p53 peptide RHKK(Ac)AMC); conditions: t1/t2 replicates
T3 construct: purchased Reaction Biology Corporation (assay run by the CRO)
Experimental: as §1, §2

HDAC3 = biological target: T4, HDAC3 (Homo sapiens, UniProt O15379); assay: HDAC3 inhibition, full IC50 measurement (Reaction Biology; fluorogenic p53 peptide RHKK(Ac)AMC); conditions: t1
T4 construct: purchased Reaction Biology Corporation (assay run by the CRO)
Experimental: as §1, §2

HDAC8 = biological target: T5, HDAC8 (Homo sapiens, UniProt Q9BY41); assay: HDAC8 inhibition, full IC50 measurement (Reaction Biology; fluorogenic p53 peptide RHKK(Ac)AMC); conditions: t1/t2 replicates
T5 construct: purchased Reaction Biology Corporation (assay run by the CRO)
T5 sequence (Q9BY41 1-377): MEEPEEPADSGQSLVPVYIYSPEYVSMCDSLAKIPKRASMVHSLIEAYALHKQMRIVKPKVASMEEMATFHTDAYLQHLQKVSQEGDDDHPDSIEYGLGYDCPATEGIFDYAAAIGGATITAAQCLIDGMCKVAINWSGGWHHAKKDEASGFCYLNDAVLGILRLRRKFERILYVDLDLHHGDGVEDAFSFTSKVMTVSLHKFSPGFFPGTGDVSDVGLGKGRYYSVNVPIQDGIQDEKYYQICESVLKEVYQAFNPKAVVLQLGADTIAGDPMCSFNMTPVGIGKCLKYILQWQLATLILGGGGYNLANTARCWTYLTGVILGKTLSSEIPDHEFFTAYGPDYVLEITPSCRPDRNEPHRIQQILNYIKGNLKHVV
Experimental: as §1, §2

HDAC2 [2] = biological target: T1, HDAC2; assay: Initial HDAC2 IC50 estimate (BPS Biosciences HDAC fluorogenic assay kit)
Experimental: Initial IC50 values were estimated using HDAC fluorogenic assay kits from BPS Biosciences (HDAC2, HDAC4, and HDAC6) following the protocol described in the kit. All the measures were performed in duplicates or triplicates. These measurements were done either on full range of concentrations (1:10 dilution from 1 µM to 100 pM) or on two concentrations only (20 nM and 200 nM) as an estimate of the range. […] Source Data are provided as a Source Data file.

[3] = HDAC2 activity (initial activity), Supplementary Dataset 2
[4] = HDAC2 activity (initial values for HDAC2 IC50), Supp. Table 4, rough estimates, for promising hits full measurements

T4 sequence (O15379 whole entry): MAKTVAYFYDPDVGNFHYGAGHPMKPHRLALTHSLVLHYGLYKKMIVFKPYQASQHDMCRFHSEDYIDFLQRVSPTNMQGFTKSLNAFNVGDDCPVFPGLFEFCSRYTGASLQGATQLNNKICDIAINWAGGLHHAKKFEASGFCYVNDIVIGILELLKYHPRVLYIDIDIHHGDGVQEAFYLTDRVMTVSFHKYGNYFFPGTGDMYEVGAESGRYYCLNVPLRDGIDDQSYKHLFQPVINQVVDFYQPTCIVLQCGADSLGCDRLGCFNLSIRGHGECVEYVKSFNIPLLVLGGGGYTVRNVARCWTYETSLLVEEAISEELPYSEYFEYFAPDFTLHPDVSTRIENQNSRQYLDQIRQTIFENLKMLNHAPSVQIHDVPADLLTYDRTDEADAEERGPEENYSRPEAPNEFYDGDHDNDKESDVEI
T4 sequence (Q9Y618 395-489 partner limits assumed): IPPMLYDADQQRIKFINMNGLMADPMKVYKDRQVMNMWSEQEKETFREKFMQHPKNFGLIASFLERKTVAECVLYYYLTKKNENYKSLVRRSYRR
T3 sequence (Q13547 whole entry): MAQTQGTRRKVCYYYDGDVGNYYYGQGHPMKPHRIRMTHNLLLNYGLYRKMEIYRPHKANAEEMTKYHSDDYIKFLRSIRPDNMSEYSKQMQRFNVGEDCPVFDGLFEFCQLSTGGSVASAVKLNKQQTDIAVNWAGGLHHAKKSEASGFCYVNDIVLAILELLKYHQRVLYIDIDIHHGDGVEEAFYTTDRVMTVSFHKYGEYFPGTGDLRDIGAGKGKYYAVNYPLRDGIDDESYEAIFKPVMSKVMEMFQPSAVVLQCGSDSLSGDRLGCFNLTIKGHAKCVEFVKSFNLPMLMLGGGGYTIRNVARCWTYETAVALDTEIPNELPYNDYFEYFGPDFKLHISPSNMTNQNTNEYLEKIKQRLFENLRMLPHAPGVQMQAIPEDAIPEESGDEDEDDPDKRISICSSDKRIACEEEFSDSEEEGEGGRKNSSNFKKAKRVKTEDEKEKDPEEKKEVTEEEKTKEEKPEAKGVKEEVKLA
T1 sequence (Q92769 whole entry): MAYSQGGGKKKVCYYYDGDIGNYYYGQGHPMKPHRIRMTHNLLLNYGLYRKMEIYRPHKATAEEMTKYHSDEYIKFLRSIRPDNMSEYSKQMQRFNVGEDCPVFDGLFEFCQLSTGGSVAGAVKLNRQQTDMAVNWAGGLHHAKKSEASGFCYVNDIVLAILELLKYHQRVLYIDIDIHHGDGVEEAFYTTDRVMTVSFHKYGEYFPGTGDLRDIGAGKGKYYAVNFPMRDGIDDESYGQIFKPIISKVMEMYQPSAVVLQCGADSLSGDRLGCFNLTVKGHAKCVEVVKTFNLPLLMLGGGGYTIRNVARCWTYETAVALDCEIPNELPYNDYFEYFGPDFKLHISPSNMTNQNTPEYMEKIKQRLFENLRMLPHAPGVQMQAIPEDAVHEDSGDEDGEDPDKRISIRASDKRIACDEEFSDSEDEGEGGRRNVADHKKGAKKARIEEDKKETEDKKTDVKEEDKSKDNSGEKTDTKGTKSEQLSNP

## NCCCC[C@@H]1NC(=O)[C@@H]2C[C@@H](O)CN2C(=O)[C@H](CC(N)=O)NC(=O)[C@H](CCCCCS)NC(=O)CNC(=O)[C@H](Cc2c[nH]c3ccccc23)NC(=O)[C@@H](CCCCN)NC(=O)[C@H](CCC(N)=O)NC1=O [des1.1.2, SHA-Asn-Hpr-Lys-Gln-dLys-Trp-Gly] (HELM PEPTIDE1{G.[O=C([C@H](CCCCCS)N[*:1])[*:2]].N.[Hyp].K.Q.[dK].W}$PEPTIDE1,PEPTIDE1,1:R1-8:R2$$$V2.0)
HDAC2 [1]; Conc. 1.00E-05 M
  HDAC2 activity raw data (signal): 101836
HDAC2 [1]; Conc. 1.11E-06 M
  HDAC2 activity raw data (signal): 502310
HDAC2 [1]; Conc. 1.23E-07 M
  HDAC2 activity raw data (signal): 836305
HDAC2 [1]; Conc. 1.37E-08 M
  HDAC2 activity raw data (signal): 962979
HDAC2 [1]; Conc. 1.52E-09 M
  HDAC2 activity raw data (signal): 1015460
HDAC2 [1]; Conc. 3.33E-06 M
  HDAC2 activity raw data (signal): 281419
HDAC2 [1]; Conc. 3.70E-07 M
  HDAC2 activity raw data (signal): 724069
HDAC2 [1]; Conc. 4.12E-08 M
  HDAC2 activity raw data (signal): 1007771
HDAC2 [1]; Conc. 4.57E-09 M
  HDAC2 activity raw data (signal): 1082856
HDAC2 [1]; Conc. 5.08E-10 M
  HDAC2 activity raw data (signal): 1067045
HDAC6; Conc. 1.00E-05 M
  HDAC6 activity raw data (signal): 10576
HDAC6; Conc. 1.11E-06 M
  HDAC6 activity raw data (signal): 35009
HDAC6; Conc. 1.23E-07 M
  HDAC6 activity raw data (signal): 150676
HDAC6; Conc. 1.37E-08 M
  HDAC6 activity raw data (signal): 391207
HDAC6; Conc. 1.52E-09 M
  HDAC6 activity raw data (signal): 551447
HDAC6; Conc. 3.33E-06 M
  HDAC6 activity raw data (signal): 16992
HDAC6; Conc. 3.70E-07 M
  HDAC6 activity raw data (signal): 72135
HDAC6; Conc. 4.12E-08 M
  HDAC6 activity raw data (signal): 256776
HDAC6; Conc. 4.57E-09 M
  HDAC6 activity raw data (signal): 497632
HDAC6; Conc. 5.08E-10 M
  HDAC6 activity raw data (signal): 597163
HDAC1; peptide conc. 1.00E-05 M
  HDAC1 activity raw data (signal): 76959
HDAC1; peptide conc. 1.11E-06 M
  HDAC1 activity raw data (signal): 410794
HDAC1; peptide conc. 1.23E-07 M
  HDAC1 activity raw data (signal): 886094
HDAC1; peptide conc. 1.37E-08 M
  HDAC1 activity raw data (signal): 1048348
HDAC1; peptide conc. 1.52E-09 M
  HDAC1 activity raw data (signal): 1178275
HDAC1; peptide conc. 3.33E-06 M
  HDAC1 activity raw data (signal): 193861
HDAC1; peptide conc. 3.70E-07 M
  HDAC1 activity raw data (signal): 669526
HDAC1; peptide conc. 4.12E-08 M
  HDAC1 activity raw data (signal): 1039919
HDAC1; peptide conc. 4.57E-09 M
  HDAC1 activity raw data (signal): 1106752
HDAC1; peptide conc. 5.08E-10 M
  HDAC1 activity raw data (signal): 1177089
HDAC3; Conc. 1.00E-05 M
  HDAC3 activity raw data (signal): 22366
HDAC3; Conc. 1.11E-06 M
  HDAC3 activity raw data (signal): 160146
HDAC3; Conc. 1.23E-07 M
  HDAC3 activity raw data (signal): 601268
HDAC3; Conc. 1.37E-08 M
  HDAC3 activity raw data (signal): 1087451
HDAC3; Conc. 1.52E-09 M
  HDAC3 activity raw data (signal): 1408573
HDAC3; Conc. 3.33E-06 M
  HDAC3 activity raw data (signal): 60464
HDAC3; Conc. 3.70E-07 M
  HDAC3 activity raw data (signal): 337153
HDAC3; Conc. 4.12E-08 M
  HDAC3 activity raw data (signal): 888364
HDAC3; Conc. 4.57E-09 M
  HDAC3 activity raw data (signal): 1250419
HDAC3; Conc. 5.08E-10 M
  HDAC3 activity raw data (signal): 1404307
HDAC8; peptide conc. 1.00E-05 M
  HDAC8 activity raw data (signal): 21213376
HDAC8; peptide conc. 1.11E-06 M
  HDAC8 activity raw data (signal): 37632401
HDAC8; peptide conc. 1.23E-07 M
  HDAC8 activity raw data (signal): 42211938
HDAC8; peptide conc. 1.37E-08 M
  HDAC8 activity raw data (signal): 48061782
HDAC8; peptide conc. 1.52E-09 M
  HDAC8 activity raw data (signal): 52470288
HDAC8; peptide conc. 3.33E-06 M
  HDAC8 activity raw data (signal): 31972513
HDAC8; peptide conc. 3.70E-07 M
  HDAC8 activity raw data (signal): 43240252
HDAC8; peptide conc. 4.12E-08 M
  HDAC8 activity raw data (signal): 47347914
HDAC8; peptide conc. 4.57E-09 M
  HDAC8 activity raw data (signal): 49471078
HDAC8; peptide conc. 5.08E-10 M
  HDAC8 activity raw data (signal): 54514203

## NCCCC[C@@H]1NC(=O)[C@@H]2CCCN2C(=O)[C@H](CC(N)=O)NC(=O)[C@H](CCCCCS)NC(=O)CNC(=O)[C@H](Cc2c[nH]c3ccccc23)NC(=O)[C@@H](CCCCN)NC(=O)[C@H](CN)NC1=O [des1.1.3, SHA-Asn-Pro-Lys-Dap-dLys-Trp-Gly] (HELM PEPTIDE1{[NC[C@H](N[*:1])C(=O)[*:2]].[dK].W.G.[O=C([C@H](CCCCCS)N[*:1])[*:2]].N.P.K}$PEPTIDE1,PEPTIDE1,1:R1-8:R2$$$V2.0)
HDAC2 [2]; [3]
  IC50: 100 nM
HDAC2 [2]; [4]
  IC50: 10 to 100 nM

## CC(C)C[C@H]1NC(=O)[C@H](Cc2c[nH]c3ccccc23)NC(=O)[C@H](CCCCCS)NC(=O)[C@@H](Cc2ccc(O)cc2)NC(=O)[C@@H]([C@H](C)O)NC(=O)[C@H](Cc2c[nH]cn2)NC(=O)CNC(=O)[C@H]2CCCN2C(=O)[C@@H](CO)NC1=O [des2.2.2, SHA-Trp-dLeu-dSer-dPro-Gly-His-dThr-dTyr] (HELM PEPTIDE1{G.H.[dT].[dY].[O=C([C@H](CCCCCS)N[*:1])[*:2]].W.[dL].[dS].[dP]}$PEPTIDE1,PEPTIDE1,1:R1-9:R2$$$V2.0)
HDAC2 [2]; [3]
  IC50: 500 nM

## CC(C)C[C@@H]1NC(=O)[C@@H](CCC(=O)O)NC(=O)[C@@H](CC(N)=O)NC(=O)[C@@H](Cc2c[nH]cn2)NC(=O)[C@H](CCCCCS)NC(=O)[C@H](Cc2ccc3ccccc3c2)NC(=O)[C@H](CCCNC(=N)N)NC(=O)[C@@H]2CCCN2C(=O)[C@@H](C)NC1=O [des3.8.0, SHA-dHis-dAsn-dGlu-Leu-dAla-Pro-Arg-B74] (HELM PEPTIDE1{[O=C([C@H](Cc1ccc2ccccc2c1)N[*:1])[*:2]].[O=C([C@H](CCCCCS)N[*:1])[*:2]].[dH].[dN].[dE].L.[dA].P.R}$PEPTIDE1,PEPTIDE1,1:R1-9:R2$$$V2.0)
HDAC2 [2]; [3]
  IC50: > 1000 nM

## NCCCC[C@@H]1NC(=O)[C@@H]2CCCN2C(=O)[C@H](CC(N)=O)NC(=O)[C@H](CCCCCS)NC(=O)CNC(=O)[C@H](Cc2c[nH]c3ccccc23)NC(=O)[C@@H](CCCCN)NC(=O)[C@H](CO)NC1=O [des1.1.4, SHA-Asn-Pro-Lys-Ser-dLys-Trp-Gly] (HELM PEPTIDE1{G.[O=C([C@H](CCCCCS)N[*:1])[*:2]].N.P.K.S.[dK].W}$PEPTIDE1,PEPTIDE1,1:R1-8:R2$$$V2.0)
HDAC2 [2]; [3]
  IC50: 100 nM
HDAC2 [2]; [4]
  IC50: 10 to 100 nM

Source: paper PMC8185074, “Anchor extension: a structure-guided approach to design cyclic peptides targeting enzyme active sites” (Nature Communications, 2021)
